Measured values reported in ChEMBL document CHEMBL1145911, “Rational design and synthesis of androgen receptor-targeted nonsteroidal anti-androgen ligands for the tumor-specific delivery of a doxorubicin-formaldehyde conjugate” (J Med Chem, 2003).

target: T1, Androgen receptor (Homo sapiens, UniProt P10275); assay: biochemical
T1 sequence (P10275 whole entry): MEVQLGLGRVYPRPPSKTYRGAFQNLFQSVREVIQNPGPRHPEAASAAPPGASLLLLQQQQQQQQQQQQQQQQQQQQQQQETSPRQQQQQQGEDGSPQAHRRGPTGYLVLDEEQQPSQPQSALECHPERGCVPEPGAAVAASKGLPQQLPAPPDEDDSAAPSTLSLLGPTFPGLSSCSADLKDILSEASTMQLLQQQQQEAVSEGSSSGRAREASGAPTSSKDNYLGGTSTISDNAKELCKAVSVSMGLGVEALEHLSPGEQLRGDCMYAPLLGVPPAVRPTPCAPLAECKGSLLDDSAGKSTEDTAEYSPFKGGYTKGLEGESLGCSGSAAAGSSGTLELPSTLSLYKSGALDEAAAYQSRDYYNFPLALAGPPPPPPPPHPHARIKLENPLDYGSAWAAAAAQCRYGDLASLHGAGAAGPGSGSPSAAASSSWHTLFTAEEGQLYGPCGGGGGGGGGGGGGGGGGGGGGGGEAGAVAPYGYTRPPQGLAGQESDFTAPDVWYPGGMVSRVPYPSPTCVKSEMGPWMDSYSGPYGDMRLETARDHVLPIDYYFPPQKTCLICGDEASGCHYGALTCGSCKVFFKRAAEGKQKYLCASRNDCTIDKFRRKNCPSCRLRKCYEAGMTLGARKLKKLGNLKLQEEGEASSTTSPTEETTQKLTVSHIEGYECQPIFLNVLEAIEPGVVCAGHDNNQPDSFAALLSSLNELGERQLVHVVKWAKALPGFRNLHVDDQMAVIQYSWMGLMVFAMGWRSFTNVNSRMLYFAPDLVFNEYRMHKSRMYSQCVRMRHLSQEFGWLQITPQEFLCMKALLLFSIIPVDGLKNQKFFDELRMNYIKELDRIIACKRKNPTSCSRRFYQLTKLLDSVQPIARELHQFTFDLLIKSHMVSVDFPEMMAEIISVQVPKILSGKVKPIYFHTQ

Row | SMILES | IC50 [µM]
1 | CC1(C)C(=O)N(c2ccc(C#N)c(C(F)(F)F)c2)C(=O)N1CCOCCN1CCN(CCOCc2ccc(O)c(C(N)=O)c2)CC1 | 0.346
2 | CC1(C)C(=O)N(c2ccc(C#N)c(C(F)(F)F)c2)C(=O)N1CCCCN1CCN(CCOCc2ccc(O)c(C(N)=O)c2)CC1 | > 1
3 | COc1cccc2c1C(=O)c1c(O)c3c(c(O)c1C2=O)C[C@@](O)(C(=O)CO)C[C@@H]3OC1C[C@H](NCNC(=O)c2cc(COCC#CCN3C(=O)N(c4ccc(C#N)c(C(F)(F)F)c4)C(=O)C3(C)C)ccc2O)[C@H](O)[C@H](C)O1 (stereo partly drawn) | 0.09
